The values that follow come from patent publication US20060147923A1, “Nucleic acid sequences encoding novel point mutations on mglur2 and mglur3” (priority 2002, published 2006).

The assay has as its target T1, wild type mGluR2 (Homo sapiens, UniProt Q14416).
T1 construct: expressed in transfected cells; host or cells: HEK293 cells, transient lipid transfection (Effectene, MAGEC plate protocol)
Description: Phosphoinositide hydrolysis, wild-type mGluR2 (FIG. 1). It counts as cell-based. The settings on record: HEK-293 cells transfected with wild-type mGluR2; 5 uM glutamate; normalized to 1 mM glutamate control. An excerpt:
For mGluR2 and mGluR3 mutants, the mGluR2/Gα16 nucleic acids are mixed with a lipid-based transfection reagent and are deposited into a well of a multi-well plate coated with fibronectin. The resulting DNA/lipid complexes are subsequently dried in vacuo then seeded with HEK293 cells. This is based on a method designated as MAGECTM, and disclosed in U.S. Provisional Application No. 60/372,476, filed Apr. 15, 2002, and titled, “Matrix Analyses of Gene Expression in Cells.”
11. Approximately forty hours after plating, the cells are analyzed in the phosphoinositide hydrolysis assay.
Phosphoinositide hydrolysis was determined by measuring the accumulation of tritiated inositol monophosphate ([^3H]-IP1) in the presence of LiCl. The method is taken from Berridge: Biochem J (1983) 212: 849-58. This determination provides for comparative data on the level of potentiation and loss of potentiation when testing a purported or known allosteric modulator in the presence of glutamate and either a wild-type mGluR2 or mGluR3 and at least one mutant of the respective mGluR2 or mGluR3.
1. HEK293 cells that were previously transiently transfected with hmGluR2 and Gα16 were labeled overnight with 1 μCi/well myo-[2-^3H]-inositol in a […] DMEM medium.
2. […]
12. The sample was quantified in a scintillation counter after a two-hour waiting period. […]

T1 sequence (Q14416 19-872): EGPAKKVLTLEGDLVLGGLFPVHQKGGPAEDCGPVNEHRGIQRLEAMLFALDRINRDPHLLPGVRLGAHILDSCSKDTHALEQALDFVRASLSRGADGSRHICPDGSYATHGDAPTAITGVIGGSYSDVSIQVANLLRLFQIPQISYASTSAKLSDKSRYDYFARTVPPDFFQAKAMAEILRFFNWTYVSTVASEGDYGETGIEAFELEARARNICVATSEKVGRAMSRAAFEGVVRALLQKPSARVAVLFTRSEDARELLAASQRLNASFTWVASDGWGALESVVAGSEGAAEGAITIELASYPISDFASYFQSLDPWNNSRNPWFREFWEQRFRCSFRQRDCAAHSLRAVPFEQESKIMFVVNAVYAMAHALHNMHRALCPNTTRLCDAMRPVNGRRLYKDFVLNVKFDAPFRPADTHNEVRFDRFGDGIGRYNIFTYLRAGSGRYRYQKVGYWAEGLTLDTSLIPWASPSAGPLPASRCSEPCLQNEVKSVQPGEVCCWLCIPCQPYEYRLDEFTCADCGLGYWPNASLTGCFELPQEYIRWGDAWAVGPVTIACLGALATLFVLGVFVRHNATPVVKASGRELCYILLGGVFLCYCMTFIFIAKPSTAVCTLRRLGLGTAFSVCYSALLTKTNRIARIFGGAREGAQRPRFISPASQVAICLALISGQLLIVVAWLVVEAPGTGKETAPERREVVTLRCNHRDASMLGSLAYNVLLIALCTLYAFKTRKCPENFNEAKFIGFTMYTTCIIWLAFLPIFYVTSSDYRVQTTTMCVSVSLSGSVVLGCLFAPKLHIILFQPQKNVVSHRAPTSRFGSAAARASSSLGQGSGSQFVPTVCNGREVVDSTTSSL

Turning to `COc1ccccc1Oc1cccc(N(Cc2cccnc2)S(=O)(=O)CC(F)(F)F)c1` [Compound A], the “effect of modulator on response to glutamate, percent response compared to 1 mM glutamate positive control” value is reported as “up-regulating the response of mGluR2”.
